Like-named read-outs stand apart in the source and are kept apart here.
Experiments:
EAE-induced weight loss = type: in vivo, C57BL/6 mice; conditions: 0.1 or 0.03 mg/kg i.p. daily from day 17
Description: Experimental detail: Female, C57BL/6 mice were immunized subcutaneously (s.c.) in the hind flanks to induce EAE using myelin oligodendrocyte glycoprotein (MOG) peptide 35-55 (50 μg/mouse) in complete Freund's adjuvant containing heat-killed Mycobacterium tuberculosis (500 μg/mouse). In addition, pertussis toxin (200 ng/mouse) was administered intraperitoneally (i.p.) on days 0 and 2. Mice were weighed and scored daily. On day 17 (dotted line), mice were started on daily treatment with vehicle only (Veh; 10% tween and 10% DMSO in saline) or Nalmefene (NaIM) at 0.1, 0.03, or 0.01 mg/kg by i.p. injection. Nalmefene was supplied by University of Kansas, Synthetic Chemical Biology Core Laboratory, 97.6% pure by HPLC). Treatment allocation was blinded. The disease was scored from 0-5 with 0 (normal), 1 (partial tail paralysis), 2 (full tail paralysis), 3 (one hind limb paralysed or severe disability in both hind limbs), 4 (complete paralysis of both hind limbs) and 5 (moribund). This model is a standard disease model for multiple sclerosis and is described in White et al. 2018. Scientific Reports. 8:259 which is incorporated herein by reference in its entirety. […]
Experimental detail: EAE was induced in female C57BL/6 mice as described in Example 1. Mice were weighed daily and the % change in body weight calculated. […]

[1] = system: myelin in spinal cord of EAE mice; test: TEM of spinal cord sections from EAE mice (myelination); type: in vivo, C57BL/6 mice; conditions: 0.03 mg/kg i.p. daily from day 17, day 45
Description: Experimental detail: EAE was induced in female C57BL/6 mice as described in Example 1. On day 17, mice were started on daily treatment with vehicle only or nalmefene at 0.03 mg/kg by i.p. injection. On day 45 after immunization to induce EAE, mice were culled and spinal cords were processed for transmission electron microscopy (TEM).

[2] = system: experimental autoimmune encephalomyelitis (EAE) mice; test: EAE model of MS, disease score, treatment from day of disease onset (score >1); type: in vivo, C57BL/6 mice
Description: Experimental detail: EAE was induced in female C57BL/6 mice as described in Example 1. On the day of disease onset (score >1, dotted line), mice were started on daily treatment with vehicle only (Veh) or nalmefene (NaIM) at 0.1, 0.03, 0.01, or 0.003 mg/kg by i.p. injection. […]
(§1) Experimental detail: EAE was induced in female C57BL/6 mice as described in Example 1. On the day of disease onset (score >1, dotted line), mice were treated with vehicle only (daily), nalmefene (0.01 mg/kg by i.p. injection daily), the KOR antagonist norBNI (10 mg/kg by i.p. injection weekly), both nalmefene and norBNI, or the MOR antagonist BFNA (10 mg/kg by i.p. injection weekly).
as §1, with “weekly). The peak disease score during the first EAE episode was recorded, and mice were considered recovered if they received a score <0.5 by day 23 post treatment initiation.” for “weekly).”
Experimental detail: EAE was induced in female C57BL/6 mice as described in Example 1.

spinal cord of EAE mice = test: Luxol fast blue histology of spinal cord, % demyelination in EAE mice; type: in vivo, C57BL/6 mice; conditions: 0.01 mg/kg i.p. daily from disease onset, chronic phase
Description: Experimental detail: EAE was induced in female C57BL/6 mice as described in Example 1. On the day of disease onset (score >1), mice were started on daily treatment with vehicle only or nalmefene at 0.01 mg/kg by i.p. injection. During the chronic phase (>24 days post treatment initiation), mice were culled, perfused with 4% paraformaldehyde and spinal cords were processed for histology. […] Shown are the means and standard error of individual values from vehicle (n=7) or 0.01 (n=3) nalmefene-treated EAE mice. *p<0.05 by one-way ANOVA with Holm-Sidak's multiple comparison test.

[3] = system: lymphocyte populations in the spleen of EAE mice; test: Splenocyte flow cytometry in chronic phase of EAE; type: in vivo, C57BL/6 mice; conditions: 0.01 mg/kg i.p. daily, 27 days post treatment initiation
Description: Experimental detail: EAE was induced in female C57BL/6 mice as described in Example 1. On the day of disease onset (score >1), mice were started on daily treatment with vehicle only or nalmefene at 0.01 mg/kg by i.p. injection. During the chronic phase (27 days post treatment initiation), mice were culled and their splenocytes assessed by flow cytometry. The percentage of the major lymphocyte populations were identified using CD4 (CD4 T helper cells), CD8 (CD8 cytotoxic T cells), and B220 (B cells), and expressed as % live leukocytes (i.e. CD45^+ cells). Shown are the means and standard error of individual mice with n=3 (healthy), 4 (vehicle) and 9 (NaIM). No significant differences were found between vehicle and healthy or nalmefene by one-way ANOVA with Holm-Sidak's multiple comparison test.
Experimental detail: EAE was induced in female C57BL/6 mice as described in Figure A. On the day of disease onset (score >1), mice were started on daily treatment with vehicle only or nalmefene at 0.01 mg/kg by i.p. injection. During the chronic phase (27 days post treatment initiation), mice were culled and their splenocytes assessed by flow cytometry. Naïve CD4 T cells (CD4^+CD44^−CD62L^high), effector CD4 T cells (CD4^+CD44^+CD62L^−), and central memory CD4T cells (CD4^+CD44^+CD62L^high) are expressed as % CD4 T cells. “Teff:cm ratio” is the ratio of effector to central memory T cells. […]

[4] = system: Alcohol consumption (Wistar and AA rat); conditions: cited from earlier work
[5] = 0.01 mg/kg i.p. daily from disease onset
[6] = 0.003-0.1 mg/kg i.p. daily from disease onset
[7] = Alcohol consumption (AA rat), PO

C=C1CC[C@@]2(O)[C@H]3Cc4ccc(O)c5c4[C@@]2(CCN3CC2CC2)[C@H]1O5 [nalmefene, (4R,4aS,7aS,12bS)-3-(cyclopropylmethyl)-7-methylidene-2,4,5,6,7a,13-hexahydro-1H-4,12-methanobenzofuro[3,2-e]isoquinoline-4a,9-diol]
% change in body weight (EAE-induced weight loss): recover from EAE-induced weight loss | myelination of nerve axons in spinal cord (TEM) [1]: nerve axons appear healthy and well myelinated | disease score (recovery from paralysis) [2, 5]: recovery from paralysis, which is complete | peak disease score during first EAE episode [2, 5]: modest but significant effect | percentage of mice recovered (score <0.5 by day 23 post treatment initiation) [2, 5]: all of the mice recover | number of days in recovery [2, 6]: enables a sustained functional recovery | percentage of mice recovered (score <0.5 by day 23 post treatment initiation) [2, 6]: enables full functional recovery | dose showing the most rapid recovery ([2]; i.p. daily from disease onset, replicated in 6 independent experiments): 0.01 mg/kg | disease score ([2]; nalmefene 0.01 mg/kg i.p. daily in the presence of norBNI 10 mg/kg i.p. weekly): effective at reducing disease independently of the KOR | number of days in recovery (sustained recovery) ([2]; nalmefene 0.01 mg/kg i.p. daily, clemastine fumerate 10 mg/kg i.p.): sustained recovery | disease score (functional recovery), comparison nalmefene vs clemastine ([2]; nalmefene 0.01 mg/kg i.p. daily, clemastine fumerate 10 mg/kg i.p., from disease onset): almost complete recovery from paralysis | % demyelination of spinal cord (luxol fast blue) (spinal cord of EAE mice): significant reduction demyelination | Teff:cm ratio (effector to central memory CD4 T cells) in spleen [3]: reduced ratio | proportion of major lymphocyte populations in the spleen (CD4, CD8, B220; % live leukocytes) [3]: does not alter the proportion of the major lymphocyte populations in the spleen | ED50 [4, 7]: 16.1 μg/kq | Inhibition (%) [4, 7]: 23% | Inhibition (%) ([4]; Alcohol consumption (Wistar and AA rat), SC, 4 days): 73% | Inhibition (%) ([4]; Alcohol consumption (Wistar and AA rat), SC, 26 days): 67% | Inhibition (%) ([4]; Alcohol consumption (Wistar rat), SC, 6 days): 75% | In vivo efficacy ED50 ([4]; SC administration, rat): 0.2 to 0.4 mg/kg

Source: patent US20210023074A1, “TREATMENT OF DEMYELINATING DISEASES” (Victoria Link Ltd., priority 2018, published 2021)
